55 compounds from patent publication US20260097047A1, “Small molecule inhibitors of the ribosome biogenesis factor NVL2” (Board of Regents, The University of Texas System, priority 2023, published 2026) can be followed below.

In the first test the test system is HCT116 cells. Nature of the test: Cell viability assay (CellTiter-Glo, 72 hours) in HCT116 human colorectal cancer cells. Format: cell-based. Particulars: Homo sapiens, HCT-116; Table 5; HCT116, 72 hours; read-out: Activity. The method, boiled down: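 2,000 cells/well adhered overnight, then compound added by digital dispenser with DMSO normalized to 0.5%. Viability read after 72 h at 37 °C by ATP-based CellTiter-Glo luminescence. IC50 from ten-point curves baseline-corrected to vehicle, five-parameter asymmetric least-squares fit.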
In general terms: Cellular ATP, detected with luciferase, serves as a proxy for viable cell number.
`CC#CCN1C(=O)c2ccccc2Sc2cc(Nc3ncnc(C#N)c3C)ccc21` [6-((10-(But-2-yn-1-yl)-11-oxo-10,11-dihydrodibenzo[b,f][1,4]thiazepin-7-yl)amino)-5-methylpyrimidine-4-carbonitrile]: the IC50 is less than 500 nM. Turning to `CC#CCN1C(=O)c2ccccc2Cc2cc(Nc3ncnc(C#N)c3C)ccc21` [6-((5-(But-2-yn-1-yl)-6-oxo-6,11-dihydro-5H-dibenzo[b,e]azepin-2-yl)amino)-5-methylpyrimidine-4-carbonitrile], the IC50 is less than 500 nM. In the case of `CCC/C=C/CN1C(=O)c2ccccc2Sc2cc(Nc3ncccc3C(F)(F)F)ccc21` [(E)-10-(Hex-2-en-1-yl)-7-((3-(trifluoromethyl)pyridin-2-yl)amino)dibenzo[b,f][1,4]thiazepin-11 (10H)-one], the IC50 was 500 to 1000 nM. For `CC#CCN1C(=O)c2ccc(C#N)cc2Sc2cc(Nc3ncc(C#N)cc3C)ccc21` [10-(But-2-yn-1-yl)-7-((5-cyano-3-methylpyridin-2-yl)amino)-11-oxo-10,11-dihydrodibenzo[b,f][1,4]thiazepine-3-carbonitrile], the IC50 was less than 500 nM. Regarding `CC#CCN1C(=O)c2ccccc2Sc2cc(Nc3cncnc3)ccc21` [10-(But-2-yn-1-yl)-7-(pyrimidin-5-ylamino)dibenzo[b,f][1,4]thiazepin-11 (10H)-one], the IC50 is less than 500 nM. The same measure, in the same setting: the figure for `CC#CCN1C(=O)c2ccc(C#N)cc2Sc2cc(Nc3nccc(C#N)c3C)ccc21` [10-(But-2-yn-1-yl)-7-((4-cyano-3-methylpyridin-2-yl)amino)-11-oxo-10,11-dihydrodibenzo[b,f][1,4]thiazepine-3-carbonitrile] is less than 500 nM. On the same count and under the same terms, the figure for `CC#CCN1C(=O)c2ccccc2Sc2cc(Nc3cc(C#N)ncn3)ccc21` [6-((10-(But-2-yn-1-yl)-11-oxo-10,11-dihydrodibenzo[b,f][1,4]thiazepin-7-yl)amino)pyrimidine-4-carbonitrile] is less than 500 nM; for `CC#CCN1C(=O)c2ccccc2Cc2cc(Nc3ncccc3F)ccc21` [5-(But-2-yn-1-yl)-2-((3-fluoropyridin-2-yl)amino)-5H-dibenzo[b,e]azepin-6 (11H)-one] it is less than 500 nM. On to `CC#CCN1C(=O)c2ccccc2Sc2cc(Nc3nnccc3C#N)ccc21` [3-((10-(But-2-yn-1-yl)-11-oxo-10,11-dihydrodibenzo[b,f][1,4]thiazepin-7-yl)amino)pyridazine-4-carbonitrile], for which the IC50 was less than 500 nM.

Staying with this test, now noted: Homo sapiens, HCT-116; Table 6; HCT116, 72 hours; read-out: Activity.
With `CC#CCN1C(=O)c2ccccc2Sc2cc(NC3COC3)ccc21` [Table 6: —CH2CCMe; oxetan-3-yl; CH/CH; S, 10-(But-2-yn-1-yl)-7-(oxetan-3-ylamino)dibenzo[b,f][1,4]thiazepin-11 (10H)-one], the IC50 is less than 500 nM.

The same test, now with this note: Table 1; HCT116, 72 hours; read-out: Activity.
Take `CC#CCN1C(=O)c2ccccc2Sc2cc(NC(=O)N3CCCCC3)cnc21` [Table 1: —CH2CCMe; piperidin-1-yl; CH; N]: the IC50 was less than 500 nM. On to `CC#CCN1C(=O)c2ccccc2Sc2cc(NC(=O)N3CCCC3)cnc21`, for which the IC50 is less than 500 nM. Consider `CC#CCN1C(=O)c2ccccc2Sc2cc(NC(=O)N3CCCCC3)ccc21`, for which the IC50 was less than 500 nM.

Staying with this test, now noted: Table 2; HCT116, 72 hours; read-out: Activity.
With `CC#CCN1C(=O)c2ccccc2Sc2cc(NC(=S)N3CCCCC3)ccc21`, the IC50 is less than 500 nM.

The same test, now with this note: Table 3; HCT116, 72 hours; read-out: Activity.
As to `CC#CCN1C(=O)c2ccccc2Sc2cc(NC(=O)NC3CC(COC)C3)cnc21` (stereo not drawn) [Table 3: —CH2CCMe; 3-MeOCH2-cBu; CH/N], the IC50 is less than 500 nM.

Staying with this test, now noted: Table 4; HCT116, 72 hours; read-out: Activity.
Regarding `CC#CCN1C(=O)c2ccccc2Sc2cc(NC(=S)Nc3ccc4oc(=O)n(C)c4c3)ccc21`, the IC50 is less than 500 nM. On the same count and under the same terms, under `CC#CCN1C(=O)c2ccccc2Sc2cc(NC(=S)Nc3cccc(OC)c3)cnc21` [Table 4: —CH2CCMe; 3-MeOPh; N] stands less than 500 nM; under `CC#CCN1C(=O)c2ccccc2Sc2cc(NC(=S)N[C@H]3C[C@@H](O)C3)cnc21` [Table 4: —CH2CCMe; cis-3-OH-cBu; N], less than 500 nM.

The same test, now with this note: Table 5; HCT116, 72 hours; read-out: Activity.
As for `CC#CCN1C(=O)c2ccccc2Sc2cc(Nc3ncc(C)cc3C)cnc21`, the IC50 is less than 500 nM. In the case of `CC=CCN1C(=O)c2ccccc2Sc2cc(Nc3ncccc3C#N)ccc21`, the IC50 was less than 500 nM. As for `CC#CCN1C(=O)c2ccccc2Sc2cc(Nc3ncc(C)nc3C)cnc21`, the IC50 is less than 500 nM. On to `CCCC=CCN1C(=O)c2ccccc2Sc2cc(Nc3ncccc3C#N)cnc21`, for which the IC50 was less than 500 nM. Take `Cc1ccnnc1Nc1ccc2c(c1)Sc1ccccc1C(=O)N2CC#CCl`: the IC50 is less than 500 nM. Consider `CC#CCN1C(=O)c2ccccc2Sc2cc(Nc3nccc(C)c3F)cnc21`, for which the IC50 is less than 500 nM. With `CCCC=CCN1C(=O)c2ccccc2Sc2cc(Nc3nccnc3C)cnc21`, the IC50 was less than 500 nM.

The test is the same for the next values; noted with them: Table 6; HCT116, 72 hours; read-out: Activity.
Regarding `CC#CCN1C(=O)c2ccccc2Sc2cc(NC3CC(OC)C3)cnc21` (stereo not drawn) [Table 6: —CH2CCMe; 3-MeOcBu; CH/N; S], the IC50 was less than 500 nM. Consider `CC#CCN1C(=O)c2ccccc2Sc2cc(NC3CCCOC3)cnc21` (stereo not drawn), for which the IC50 is less than 500 nM.

Still in this test, the particulars now being: Table 7; cell viability assay, CellTiter-Glo, 72 hours; scaffold drawing 42 with R^2, R^3, X/Y, Z; read-out: Activity.
Consider `COCCN1C(=O)c2ccccc2Sc2cc(NC(=O)c3cccc(F)c3)ccc21` [—(CH2)2OMe; 3-FPh; CH/CH; S], for which the IC50 lay in the range of 1000 to 5000 nM. Regarding `COCCN1C(=O)c2ccccc2Sc2cc(NC(=O)c3ccc4oc(C)nc4c3)ccc21`, the IC50 was less than 500 nM.

For `COCCN1C(=O)c2ccccc2Sc2cc(NC(=O)c3ccc(OC)cc3C)ccc21` [—(CH2)2OMe; 2-Me,4-MeOPh; CH/CH; S], the IC50 lay in the range of 1000 to 5000 nM. As to `COCCN1C(=O)c2ccccc2Sc2cc(NC(=O)C3CCOCC3)ccc21`, the IC50 fell in the range of 1000 to 5000 nM. Turning to `COCCN1C(=O)c2ccccc2Sc2cc(NC(=O)c3cnccn3)ccc21` [—(CH2)2OMe; pyrazin-2-yl; CH/CH; S], the IC50 lay in the range of 1000 to 5000 nM. `CNC(=O)c1cccc(C(=O)Nc2ccc3c(c2)Sc2ccccc2C(=O)N3CCOC)c1` [—(CH2)2OMe; 3-MeNHC(O)Ph; CH/CH; S]: the IC50 lay within 1000 to 5000 nM. Same read-out and setting: the figure for `C#CCOCCN1C(=O)c2ccccc2Sc2cc(NC(=O)c3ccc(OC)cc3)ccc21` [—(CH2)2OCH2CCH; 4-MeOPh; CH/CH; S] is less than 500 nM. Turning to `CCCC=CCN1C(=O)c2ccccc2Sc2cc(NC(=O)c3ccoc3)ccc21` [—CH2CH═CHPr; furan-3-yl; CH/CH; S], the IC50 was less than 500 nM. As to `CNC(=O)CCCCCN1C(=O)c2ccccc2Sc2cc(NC(=O)c3ccoc3)ccc21` [—(CH2)5CONHMe; furan-3-yl; CH/CH; S], the IC50 was 1000 to 5000 nM.

The same test, now with this note: Table 8; analogs of scaffold drawing 43 defined by R^2, R^3, X/Y, W; read-out: Activity (IC50 class, cell viability assay).
As for `CC#CCN1C(=O)c2ccc(C#N)cc2Sc2cc(NC(=O)[C@@H]3C[C@H]3COC)cnc21` (relative stereo) [—CH2CCMe; trans-2-MeOCH2-cPr; CCN/CH; N], the IC50 is less than 500 nM. Regarding `O=C(Nc1ccc2c(c1)Sc1ccc(F)cc1C(=O)N2CC#CC1CC1)C1CC2(CC(O)C2)C1` (stereo not drawn), the IC50 is less than 500 nM. `CC#CCN1C(=O)c2cc(F)ccc2Sc2cc(NC(=O)c3ccc4oc(=O)n(C)c4c3)ccc21`: the IC50 is less than 500 nM.

On to `C#CCN1C(=O)c2cc(F)ccc2Sc2cc(NC(=O)C3CC4(CC(=NOC)C4)C3)ccc21` (stereo not drawn), for which the IC50 was less than 500 nM.

Take `COCC1CC(C(=O)Nc2ccc3c(c2)Sc2ccc(F)cc2C(=O)N3CC#CCF)C1` (stereo not drawn) [—CH2CCCH2F; 3-MeOCH2-cBu; CH/CF; CH]: the IC50 was less than 500 nM.

In the case of `CC#CCN1C(=O)c2ccc(Cl)cc2Sc2cc(NC(=O)C3CC4(COC4)C3)cnc21`, the IC50 is less than 500 nM.

For `CC#CCN1C(=O)c2cc(F)ccc2Sc2cc(NC(=O)C(C)CCOC)ccc21` (stereo not drawn) [—CH2CCMe; MeO(CH2)2CHMe-; CH/CF; CH], the IC50 is less than 500 nM. Consider `O=C1c2ccccc2Sc2cc(NC(=O)C34CC(C3)C4)cnc2N1CC#CC1CC1`, for which the IC50 is less than 500 nM. The same measure, in the same setting: the figure for `CC#CCN1C(=O)c2ccc(Cl)cc2Sc2cc(NC(=O)[C@H]3C[C@H](OC)C3)ccc21` [—CH2CCMe; trans-3-MeOcBu; CCl/CH; CH] is less than 500 nM. With `CC#CCN1C(=O)c2ccc(Cl)cc2Sc2cc(NC(=O)[C@H]3C[C@@H](O)C3)cnc21` [—CH2CCMe; cis-3-OH-cBu; CCI/CH; N], the IC50 is less than 500 nM.

Consider `CC#CCN1C(=O)c2ccc(F)cc2Sc2cc(NC(=O)c3ccc(OC)cc3)ccc21` [—CH2CCMe; 4-MeOPh; CF/CH; CH], for which the IC50 was less than 500 nM.

`CC#CCN1C(=O)c2cc(F)ccc2Sc2cc(NC(=O)C3CC4(CC(=NOC)C4)C3)ccc21` (stereo not drawn): the IC50 is less than 500 nM.

Consider `CC#CCN1C(=O)c2ccc(C#N)cc2Sc2cc(NC(=O)C=CCOC)ccc21` [—CH2CCMe; CH—═CHCH2OMe; CCN/CH; CH], for which the IC50 was less than 500 nM. Still for that read-out and setting: the figure for `CC#CCN1C(=O)c2ccc(Cl)cc2Sc2cc(NC(=O)[C@H]3C[C@@H]3COC)cnc21` (relative stereo) [—CH2CCMe; trans-2-MeOCH2-cPr; CCl/CH; N] is less than 500 nM. For `CC#CCN1C(=O)c2ccccc2Sc2cc(NC(=O)C3CCN(C)C3=O)ccc21` (stereo not drawn), the IC50 lay within 500 to 1000 nM. Consider `CO[C@H]1C[C@H](C(=O)Nc2cnc3c(c2)Sc2ccccc2C(=O)N3CC#CCF)C1` [—CH2CCCH2F; trans-3-MeOcBu; CH/CH; N], for which the IC50 was less than 500 nM.

The same test, now with this note: Table 9; HCT116, 72 hours; read-out: Activity.
In the case of `COCC=CC(=O)Nc1ccc2c(c1)C(C)c1ccccc1C(=O)N2CC#CC1CC1` (stereo not drawn) [Table 9: —CH2CC^cPr; CH═CHCH2OMe; CHMe], the IC50 is less than 500 nM. On to `COCC1CC(C(=O)Nc2ccc3c(c2)C(C)(O)c2ccccc2C(=O)N3CC#CC2CC2)C1` (stereo not drawn) [Table 9: —CH2CCcPr; 3-MeOCH2-cBu; CMeOH], for which the IC50 is less than 500 nM.

Regarding `COCCNC(=O)Nc1ccc2c(c1)C(C)c1ccccc1C(=O)N2CC#CC1CC1` (stereo not drawn) [Table 9: —CH2CC^cPr; NH(CH2)2OMe; CHMe], the IC50 was less than 500 nM.

Still in this test, the particulars now being: cell viability assay; Table 10 analogs of scaffold drawing 45 defined by R2, R3, X/Y, W; read-out: Activity.
Consider `CC#CCN1C(=O)c2ccc(Cl)cc2Sc2cc(NC(=O)[C@H]3C[C@H](OC)C3)ccc21` [—CH2CCMe; trans-3-MeOcBu; CCl/CH; CH], for which the IC50 was less than 500 nM.

In the case of `CO[C@H]1C[C@H](C(=O)Nc2cnc3c(c2)Sc2ccccc2C(=O)N3CC#CCF)C1` [—CH2CCCH2F; trans-3-MeOcBu; CH/CH; N], the IC50 is less than 500 nM.
